Test results from patent US10695334B2, “Heteroaromatic carboxamide derivatives as plasma kallikrein inhibitors” (Boehringer Ingelheim International GmbH, priority 2018, dated 2020).

Key:
Format in all cases: biochemical
[1] = target: human TK1 (Homo sapiens (Human), UniProt P06870); assay: Inhibition of TK1 (Ki); conditions: column head prints IC50, text above the table says Ki values
Procedure: The ability of compounds of formula (I) to inhibit plasma kallikrein (PKK), Factor Xlla (FXIIa), Factor Xla (FXIa), Factor Xa (FXa), Factor Ila (alpha-thrombin; FIIa), plasmin, trypsin, tissue kallikrein 1 (TK1), Factor VIIa (FVIIa), or FVIIa complexed with Tissue Factor, phospholipids and CaCl2 (FVIIa/TF/PL/CaCl2) was determined using the following biochemical assays in assay buffer (100 mM Tris, 150 mM NaCL, adjusted to a pH of 7.8 with HCl, and containing 0.1% (w/v) BSA and 0.05% (v/v) Tween20) in the presence of 1% (v/v) DMSO: EVALUATION OF THE INHIBITION OF PKK USING AN ENDPOINT ASSAY Human PKK (0.01 U/mL; Enzyme Research Laboratories) or rat PKK (0.625 nM; produced in-house) was incubated for 1 h at room temperature with 0.10 μM fluorogenic substrate H-Pro-Phe-Arg-AMC (11295 from Bachem) and various concentrations of the test compound in assay buffer. Subsequently, PPACK II (Calbiochem) was added as a stop solution to achieve a final concentration of 1 μM and fluorescence was measured using an Envision Reader (PerkinElmer) with the wavelength excitation setting of 355 nm and the wavelength emission setting of 460 nm.
Prior to the assay, human TK1 (R&D Systems) was activated by incubation with human trypsin (Calbiochem) in a 1:10,000 ratio for 15 min at 37° C. For assaying TK1 inhibitory activity, activated TK1 (31.25 nM or 1 U/mL) was incubated at 24° C. with 0.1 mM fluorogenic substrate H-Pro-Phe-Arg-AMC (11295 from Bachem) and various concentrations of the test compound in assay buffer. Measurements were performed in a kinetic interval every 2nd minute for 16 min using a Spectramax M5 (Molecular Devices) with the following settings of the wavelength excitation of 350 nm and wavelength emission of 450 nm.
The average Vmax values for the time interval from 2 to 12 min after initiation of the assay (expressed as either delta OD/min for assays using a chromogenic substrate or delta RFU/min for assays using a fluorigenic substrate, respectively) were plotted versus the Log of the concentration in molar of the evaluated inhibitor compound. The pIC50 values were then fitted using a four-parametric fitting procedure using GraphPad Prism (version 6; GraphPad Software, Inc.). Respective Ki values were obtained by correction of the IC50 values for the respective KM value of the used substrate (see Table A for the obtained KM values of the used substrates) using the following formula: […]
(§1) Where the IC50 is in molar and the KM value in mM.

[2] = target: PKK in kaolin activated human platelet poor plasma (Homo sapiens (Human), UniProt P03952); assay: Inhibition of PKK in kaolin activated human PPP; conditions: global fit over 25, 75, 250, 750 μg/mL kaolin
Procedure: Platelet poor plasma (PPP) obtained from human wholeblood, anticoagulated with Na-Citrat, was incubated with various concentrations of the test compound together with either 25, 75, 250, or 750 μg/mL kaolin in assay buffer for 20 min at 37° C. such that for each kaolin dose used a concentration response was obtained for the test compound.

[3] = target: T1, Human PKK (Homo sapiens (Human), UniProt P03952); assay: Inhibition of PKK, endpoint assay (human PKK); conditions: substrate H-Pro-Phe-Arg-AMC, 1 h room temperature
Procedure: Subsequently, PPACK II (Calbiochem) was added as a stop solution to achieve a final concentration of 1 μM and fluorescence was measured using an Envision Reader (PerkinElmer) with the wavelength excitation setting of 355 nm and the wavelength emission setting of 460 nm.

[4] = target: T1, Human PKK; assay: Inhibition of PKK (Ki), kinetic assay; conditions: 24° C., IC50 corrected for KM
Procedure: Measurements were performed in a kinetic interval every 2nd minute for 16 min using a Spectramax M5 (Molecular Devices) with the following settings of the wavelength excitation of 350 nm and wavelength emission of 450 nm. The number of the compound corresponds to the number of the Example in the experimental section.
The pIC50 values were then fitted using a four-parametric fitting procedure using GraphPad Prism (version 6; GraphPad Software, Inc.).
as §1

T1 sequence (P03952 391-638): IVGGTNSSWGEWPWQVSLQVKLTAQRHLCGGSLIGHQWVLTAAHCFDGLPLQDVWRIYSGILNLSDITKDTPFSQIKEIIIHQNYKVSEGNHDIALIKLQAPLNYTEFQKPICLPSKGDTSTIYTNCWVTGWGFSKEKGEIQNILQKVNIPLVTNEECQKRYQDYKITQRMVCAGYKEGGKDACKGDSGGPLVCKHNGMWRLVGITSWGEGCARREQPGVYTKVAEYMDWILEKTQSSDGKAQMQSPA
T1 sequence (P03952 20-390 partner): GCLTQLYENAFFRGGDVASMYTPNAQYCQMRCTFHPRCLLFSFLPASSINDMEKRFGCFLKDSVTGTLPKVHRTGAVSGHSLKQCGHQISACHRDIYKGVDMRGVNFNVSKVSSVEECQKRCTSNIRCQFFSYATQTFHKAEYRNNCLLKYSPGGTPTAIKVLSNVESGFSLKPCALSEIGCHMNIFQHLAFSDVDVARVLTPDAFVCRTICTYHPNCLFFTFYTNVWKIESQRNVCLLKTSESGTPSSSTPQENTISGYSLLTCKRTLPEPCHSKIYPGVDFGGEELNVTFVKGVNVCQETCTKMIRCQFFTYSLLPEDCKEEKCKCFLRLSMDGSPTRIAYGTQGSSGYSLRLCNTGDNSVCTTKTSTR
Chain of PKK in kaolin activated human platelet poor plasma (P03952 391-638): as the sequence (P03952 391-638) above
Chain of PKK in kaolin activated human platelet poor plasma (P03952 20-390 partner): as the sequence (P03952 20-390 partner) above
Chain of human TK1 (P06870 25-262): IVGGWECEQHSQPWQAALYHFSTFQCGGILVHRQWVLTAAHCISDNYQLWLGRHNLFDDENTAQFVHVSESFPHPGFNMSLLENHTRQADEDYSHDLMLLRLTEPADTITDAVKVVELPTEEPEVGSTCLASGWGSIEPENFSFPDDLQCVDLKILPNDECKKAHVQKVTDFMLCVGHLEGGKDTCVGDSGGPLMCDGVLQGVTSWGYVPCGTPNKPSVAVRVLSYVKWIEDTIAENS

| Compound | IC50 [1] [nM] | IC90 [2] [nM] | IC50 [3] [nM] | Ki [4] [nM] |
| --- | --- | --- | --- | --- |
| Cc1nc(N2CC3CC3C2)ccc1Cn1cc(C(=O)N[C@@H]2CCc3c(C)n[nH]c32)c(Cl)n1 (stereo partly drawn) [Example 12, 1-[(6-{3-Azabicyclo[3.1.0]hexan-3-yl}-2-methylpyridin-3-yl)methyl]-3-chloro-N-[(6R)-3-methyl-1H,4H,5H,6H-cyclopenta[c]pyrazol-6-yl]-1H-pyrazole-4-carboxamide] | > 10000 | 3090 | 1 | 2 |
| Cc1nc(N2CCC(C)(C)C2)ccc1Cn1cc(C(=O)N[C@@H]2CCc3c2n[nH]c3C)cn1 [Example 35, 1{[6-(3,3-Dimethylpyrrolidin-1-yl)-2-methylpyridin-3-yl]methyl}-N-[(6R)-3-methyl-2H,4H,5H,6H-cyclopenta[c]pyrazol-6-yl]-1H-pyrazole-4-carboxamide] | > 10000 | 2010 | 2 | 0.9 |
| Cc1nc(N2CCC3(CCC3)C2)ccc1Cn1cc(C(=O)N[C@@H]2CCc3c2n[nH]c3C)cn1 [Example 36, 1-[(6-{6-Azaspiro[3.4]octan-6-yl}-2-methylpyridin-3-yl)methyl]-N-[(6R)-3-methyl-2H,4H,5H,6H-cyclopenta[c]pyrazol-6-yl]-1H-pyrazole-4-carboxamide] | > 10000 | 4670 | 4 | 1 |
| Cc1nc(N2CCC(F)(F)C2)ccc1Cn1cc(C(=O)N[C@@H]2CCc3c2n[nH]c3C)cn1 [Example 37, 1-{[6-(3,3-Difluoropyrrolidin-1-yl)-2-methylpyridin-3-yl]methyl}-N-[(6R)-3-methyl-2H,4H,5H,6H-cyclopenta[c]pyrazol-6-yl]-1H-pyrazole-4-carboxamide] | > 10000 | 4980 | 7 | 2 |
| Cc1nc(N2CCC(C(F)F)C2)ccc1Cn1cc(C(=O)N[C@@H]2CCc3c2n[nH]c3C)cn1 (stereo partly drawn) [Example 46, 1-({6-[3-(Difluoromethyl)pyrrolidin-1-yl]-2-methylpyridin-3-yl}methyl)-N-[(6R)-3-methyl-2H,4H,5H,6H-cyclopenta[c]pyrazol-6-yl]-1H-pyrazole-4-carboxamide] | > 10000 | 2840 | 4 | 1 |
| Cc1nc(N2C[C@@H]3[C@H](C)[C@@H]3C2)ccc1Cn1cc(C(=O)N[C@@H]2CCc3c2n[nH]c3C)cn1 [Example 47, N-[(6R)-3-Methyl-2H,4H,5H,6H-cyclopenta[c]pyrazol-6-yl]-1-({2-methyl-6-[(1R,5S,6S)-6-methyl-3-azabicyclo[3.1.0]hexan-3-yl]pyridin-3-yl}methyl)-1H-pyrazole-4-carboxamide] | > 10000 | 445 | 0.9 | 0.4 |
| Cc1nc(N2CCCC2)ccc1Cn1cc(C(=O)N[C@@H]2CCc3c2n[nH]c3C)cn1 [Example 52, N-[(6R)-3-Methyl-2H,4H,5H,6H-cyclopenta[c]pyrazol-6-yl]-1-{[2-methyl-6-(pyrrolidin-1-yl)pyridin-3-yl]methyl}-1H-pyrazole-4-carboxamide] | > 10000 | 5120 | 4 | 1 |
| Cc1nc(N2CC3(CCC3)C2)ccc1Cn1cc(C(=O)N[C@@H]2CCc3c2n[nH]c3C)cn1 [Example 54, 1-[(6-{2-Azaspiro[3.31]heptan-2-yl}-2-methylpyridin-3-yl)methyl]-N-[(6R)-3-methyl-2H,4H,5H,6H-cyclopenta[c]pyrazol-6-yl]-1H-pyrazole-4-] | > 10000 | 944 | 2 | 1 |
| Cc1nc(N2CCC(C)(C#N)C2)ccc1Cn1cc(C(=O)N[C@@H]2CCc3c2n[nH]c3C)cn1 (stereo partly drawn) [Example 71, 1-{[6-(3-Cyano-3-methylpyrrolidin-1-yl)-2-methylpyridin-3-yl]methyl}-N-[(6R)-3-methyl-2H,4H,5H,6H-cyclopenta[c]pyrazol-6-yl]-1H-pyrazole-4-carboxamide] | > 10000 | 708 | 2 | 1 |
| Cc1nc(N2CC(C)(F)C2)ccc1Cn1cc(C(=O)N[C@@H]2CCc3c2n[nH]c3C)cn1 [Example 77, 1-{[6-(3-Fluoro-3-methylazetidin-1-yl)-2-methylpyridin-3-yl]methyl}-N-[(6R)-3-methyl-2H,4H,5H,6H-cyclopenta[c]pyrazol-6-yl]-1H-pyrazole-4-carboxamide] | > 10000 | 1110 | 5 | 4 |
| Cc1nc(N2CC3CC3C2)ncc1Cn1cc(C(=O)N[C@@H]2CCc3c(C)n[nH]c32)nn1 (stereo partly drawn) [Example 87, 1-[(2-{3-Azabicyclo[3.1.0]hexan-3-yl}-4-methylpyrimidin-5-yl)methyl]-N-[(6R)-3-methyl-1H,4H,5H,6H-cyclopenta[c]pyrazol-6-yl]-1H-1,2,3-triazole-4-carboxamide] | > 10000 | 1170 | 2 | 1 |
| Cc1nc(N2CC3CC3C2)ccc1Cn1cc(C(=O)N[C@@H]2CCc3c2n[nH]c3C)nc1C1CC1 (stereo partly drawn) [Example 96, 1-[(6-{3-Azabicyclo[3.1.0]hexan-3-yl}-2-methyl-pyridin-3-yl)methyl]-2-cyclopropyl-N-[(6R)-3-methyl-2H,4H,5H,6H-cyclopenta[c]pyrazol-6-yl]-1H-imidazole-4-carboxamide] | > 10000 | 781 | 2 | 1 |
| Cc1nc(N2CC3CC3C2)ccc1Cn1cc(C(=O)N[C@@H]2CCc3c2n[nH]c3C)nc1C (stereo partly drawn) [Example 97, 1-[(6-(3-Azabicyclo[3.1.0]hexan-3-yl}-2-methyl-pyridin-3-yl)methyl]-2-methyl-N-[(6R)-3-methyl-2H,4H,5H,6H-cyclopenta[c]pyrazol-6-yl]-1H-imidazole-4-carboxamide] | > 10000 | 302 | 2 | 1 |
| Cc1nc(N2CC3CC3C2)ccc1Cn1cc(C(=O)N[C@@H]2CCc3c2n[nH]c3C)nc1C(F)(F)F (stereo partly drawn) [Example 98, 1-[(6-{3-Azabicyclo[3.1.0]hexan-3-yl}-2-methyl-pyridin-3-yl)methyl]-N-[(6R)-3-methyl-2H,4H,5H,6H-cyclopenta[c]pyrazol-6-yl]-2-(trifluoromethyl)-1H-imidazole-4-carboxamide] | > 10000 | 3140 | 5 | 6 |
| Cc1nc(N2C[C@@H]3[C@H](C)[C@@H]3C2)ccc1Cn1cnc(C(=O)N[C@@H]2CCc3c2n[nH]c3C)c1 [Example 100, N-[(6R)-3-Methyl-2H,4H,5H,6H-cyclopenta[c]-pyrazol-6-yl]-1-({2-methyl-6-[(1R,5S,6R)-6-methyl-3-azabicyclo[3.1.0]hexan-3-yl]pyridin-3-yl}methyl)-1H-imidazole-4-carboxamide] | > 10000 | 303 | 0.4 | 0.8 |
| Cc1nc(N2C[C@@H]3[C@H](C)[C@@H]3C2)ncc1Cn1cnc(C(=O)N[C@@H]2CCc3c2n[nH]c3C)c1 [Example 101, 1-({4-Methyl-2-[(1R,5S,6R)-6-methyl-3-azabicyclo[3.1.0]hexan-3-yl]pyrimidin-5-yl}methyl)-N-[(6R)-3-methyl-2H,4H,5H,6H-cyclopenta[c]-pyrazol-6-yl]-1H-imidazole-4-carboxamide] | > 10000 | 727 | 2 | 2 |
